Experimental data reported in ChEMBL document CHEMBL1201862, “PubChem BioAssay data set” (2004).
Active and inactive are the calls of the source.

Experiments:
[1] = biological target: Genome polyprotein (dengue virus type 2, UniProt P29990); assay: flavivirus cap methylation enzyme inhibition – biochemical, confirmation dose response, primary screen (AID 588689); assay type: functional
[2] = biological target: T1, Polyadenylate-binding protein 1 (Homo sapiens, UniProt P11940); assay: MLLE binding blockers, Cy5 peptide tracer – biochemical, fluorescence polarization, Cy5-PAM2 peptide, secondary, miRNA deadenylation inhibitor project, dose response (AID 602260); assay type: functional; settings: read-out: IC50_Mean
[3] = biological target: T1, Polyadenylate-binding protein 1; assay: MLLE domain peptide-binding blockers, IC50 – biochemical, fluorescence polarization, FITC-PAM2 peptide, dose response (AID 602259); assay type: functional; settings: read-out: IC50_Mean
[4] = biological target: Glyceraldehyde-3-phosphate dehydrogenase (Homo sapiens, UniProt P04406)
[5] = biological target: T2, Short transient receptor potential channel 4 (Mus musculus, UniProt Q9QUQ5); assay: calcium entry via TRPC4 opening agents – cell-based, HEK293 TRPC4/mu-opioid, Fluo-4 calcium, dose response (AID 434937); assay type: functional
T2 sequence (Q9QUQ5 whole entry): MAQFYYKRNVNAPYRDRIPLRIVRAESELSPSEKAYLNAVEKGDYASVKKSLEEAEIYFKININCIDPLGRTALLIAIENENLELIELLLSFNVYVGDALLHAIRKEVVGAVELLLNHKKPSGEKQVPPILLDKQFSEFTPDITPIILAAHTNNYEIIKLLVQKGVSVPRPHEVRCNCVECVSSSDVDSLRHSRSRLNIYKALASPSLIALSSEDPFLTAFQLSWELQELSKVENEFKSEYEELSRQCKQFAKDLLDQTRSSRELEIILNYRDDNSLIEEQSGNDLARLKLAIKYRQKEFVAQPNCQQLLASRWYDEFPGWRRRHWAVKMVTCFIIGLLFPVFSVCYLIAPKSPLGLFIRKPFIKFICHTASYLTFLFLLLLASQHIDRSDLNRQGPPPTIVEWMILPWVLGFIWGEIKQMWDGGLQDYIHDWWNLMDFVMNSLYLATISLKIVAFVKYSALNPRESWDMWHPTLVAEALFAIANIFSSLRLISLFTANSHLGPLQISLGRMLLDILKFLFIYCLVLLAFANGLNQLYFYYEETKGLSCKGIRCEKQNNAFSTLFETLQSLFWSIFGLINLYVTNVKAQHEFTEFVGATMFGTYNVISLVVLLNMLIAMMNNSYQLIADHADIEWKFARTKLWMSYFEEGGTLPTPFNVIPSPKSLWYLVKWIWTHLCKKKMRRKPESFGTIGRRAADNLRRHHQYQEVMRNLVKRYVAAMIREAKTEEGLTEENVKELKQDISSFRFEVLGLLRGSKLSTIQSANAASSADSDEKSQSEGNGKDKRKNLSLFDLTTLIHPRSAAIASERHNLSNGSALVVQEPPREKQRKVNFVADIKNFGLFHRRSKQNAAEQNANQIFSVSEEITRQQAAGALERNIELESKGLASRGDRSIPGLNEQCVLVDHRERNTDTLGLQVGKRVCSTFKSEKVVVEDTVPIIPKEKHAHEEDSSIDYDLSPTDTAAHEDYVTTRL

[6] = biological target: T3, Corticotropin-releasing factor receptor 2/Corticotropin-releasing factor-binding protein (Homo sapiens, UniProt P24387+Q13324); assay: activators of CRF receptor 2 with binding protein – uHTS hits, confirmation (AID 602473); assay type: functional; settings: read-out: EC50_Mean
T3 sequence (Q13324 whole entry): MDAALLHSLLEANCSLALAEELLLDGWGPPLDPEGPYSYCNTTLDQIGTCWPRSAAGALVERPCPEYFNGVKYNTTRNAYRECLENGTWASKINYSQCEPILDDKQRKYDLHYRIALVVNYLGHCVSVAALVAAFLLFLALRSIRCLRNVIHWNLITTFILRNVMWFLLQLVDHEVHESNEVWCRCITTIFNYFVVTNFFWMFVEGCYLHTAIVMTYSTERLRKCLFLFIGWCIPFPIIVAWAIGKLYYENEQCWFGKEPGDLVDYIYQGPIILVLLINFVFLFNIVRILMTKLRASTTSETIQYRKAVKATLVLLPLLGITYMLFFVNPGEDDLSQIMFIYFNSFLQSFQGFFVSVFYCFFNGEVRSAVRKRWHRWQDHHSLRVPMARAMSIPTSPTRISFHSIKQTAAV
T3 sequence (P24387 whole entry): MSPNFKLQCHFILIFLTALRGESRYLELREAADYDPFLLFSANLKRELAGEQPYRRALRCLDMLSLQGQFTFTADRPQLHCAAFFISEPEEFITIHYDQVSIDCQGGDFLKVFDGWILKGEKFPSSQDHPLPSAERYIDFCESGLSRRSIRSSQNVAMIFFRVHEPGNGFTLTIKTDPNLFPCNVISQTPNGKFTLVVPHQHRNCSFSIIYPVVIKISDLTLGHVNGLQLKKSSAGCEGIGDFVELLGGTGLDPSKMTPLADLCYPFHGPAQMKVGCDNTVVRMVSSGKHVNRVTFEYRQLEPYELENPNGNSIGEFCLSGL

[7] = biological target: T3, Corticotropin-releasing factor receptor 2/Corticotropin-releasing factor-binding protein; assay: Dose Response confirmation of uHTS hits for small molecule antagonists of the CRF-binding protein and CRF-R2 receptor complex.; assay type: functional; settings: read-out: IC50_Mean
[8] = reduction of Shn3 3'UTR-driven luciferase in osteoblasts – cell-based, Clone20 osteoblasts, firefly luciferase, cherry-picked, dose response (AID 624132); assay type: functional;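 note: firefly luciferase luminescence from reporter carrying the Shn3 3'UTR in osteoblasts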
[9] = Luminescence Cell-Based Dose Response HTS to Identify Inhibitors of 5'UTR Stem-Loop Driven Prion Protein mRNA Translation in H4 Neuroglioblastoma Cells. [Related pubchem assays: 1827 (Project Summary), 1813 (Primary HTS)]; assay type: functional
[10] = cells; assay type: functional, cell-based
[11] = system: Streptococcus; assay: GAS UMAA2166 growth inhibition – luminescence, BacTiterGlo, counter-screen for streptokinase expression inhibitor project, dose response (AID 1915); assay type: functional, organism-based;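 note: potency for reduction of bacterial viability or growth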
[12] = system: Streptococcus sp. 'group A'; assay: Streptococcus pyogenes SK(-)GAS viability under kanamycin – luminescence, BacTiterGlo, confirmation, counter-screen for streptokinase expression inhibitor project, dose response (AID 1900); assay type: functional, organism-based
[13] = system: HEK293; assay: EBV LMP1 TES2 canonical NF-kB signalling blockers – cell-based, HEK293, luciferase, cherry-pick, dose response (AID 588343); assay type: functional; settings: Homo sapiens
[14] = cells; assay type: functional, cell-based; remark: listed apart in the source
[15] = fluconazole-exposed Candida albicans growth modulators – fluorescence, retest, confirmation (AID 2467); assay type: functional, cell-based
[16] = NIH-3T3 fibroblast cytotoxicity, dose response, cytotoxicity control, cell-based, fluorescence, Alamar Blue, secondary assay (AID 2327); assay type: functional;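 note: NIH-3T3 mouse fibroblasts cultured with fluconazole at 8 µg/mL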
[17] = alpha-synuclein stem-loop luciferase translation blockers – H4 neuroglioma cells, luminescence, confirmation (AID 1988); assay type: functional, cell-based

T1 sequence (P11940 whole entry, the tested form may be a part): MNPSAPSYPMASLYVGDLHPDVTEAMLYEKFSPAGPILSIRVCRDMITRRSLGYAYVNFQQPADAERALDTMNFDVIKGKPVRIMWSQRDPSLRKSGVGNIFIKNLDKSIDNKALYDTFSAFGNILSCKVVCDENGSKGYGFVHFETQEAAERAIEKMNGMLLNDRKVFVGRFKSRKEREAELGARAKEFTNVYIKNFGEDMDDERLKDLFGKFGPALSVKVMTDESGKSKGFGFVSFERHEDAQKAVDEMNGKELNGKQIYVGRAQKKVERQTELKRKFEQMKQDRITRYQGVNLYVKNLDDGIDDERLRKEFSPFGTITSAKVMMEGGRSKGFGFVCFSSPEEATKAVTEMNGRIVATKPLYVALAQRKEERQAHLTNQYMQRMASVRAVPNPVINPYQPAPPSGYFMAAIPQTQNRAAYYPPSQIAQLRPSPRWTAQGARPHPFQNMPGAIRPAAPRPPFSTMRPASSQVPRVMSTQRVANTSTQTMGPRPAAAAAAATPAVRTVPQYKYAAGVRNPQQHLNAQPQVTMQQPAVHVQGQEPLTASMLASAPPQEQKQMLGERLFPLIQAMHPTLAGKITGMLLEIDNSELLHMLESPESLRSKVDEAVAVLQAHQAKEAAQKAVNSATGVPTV
Genome polyprotein, sequence (P29990 2492-3391 limits assumed): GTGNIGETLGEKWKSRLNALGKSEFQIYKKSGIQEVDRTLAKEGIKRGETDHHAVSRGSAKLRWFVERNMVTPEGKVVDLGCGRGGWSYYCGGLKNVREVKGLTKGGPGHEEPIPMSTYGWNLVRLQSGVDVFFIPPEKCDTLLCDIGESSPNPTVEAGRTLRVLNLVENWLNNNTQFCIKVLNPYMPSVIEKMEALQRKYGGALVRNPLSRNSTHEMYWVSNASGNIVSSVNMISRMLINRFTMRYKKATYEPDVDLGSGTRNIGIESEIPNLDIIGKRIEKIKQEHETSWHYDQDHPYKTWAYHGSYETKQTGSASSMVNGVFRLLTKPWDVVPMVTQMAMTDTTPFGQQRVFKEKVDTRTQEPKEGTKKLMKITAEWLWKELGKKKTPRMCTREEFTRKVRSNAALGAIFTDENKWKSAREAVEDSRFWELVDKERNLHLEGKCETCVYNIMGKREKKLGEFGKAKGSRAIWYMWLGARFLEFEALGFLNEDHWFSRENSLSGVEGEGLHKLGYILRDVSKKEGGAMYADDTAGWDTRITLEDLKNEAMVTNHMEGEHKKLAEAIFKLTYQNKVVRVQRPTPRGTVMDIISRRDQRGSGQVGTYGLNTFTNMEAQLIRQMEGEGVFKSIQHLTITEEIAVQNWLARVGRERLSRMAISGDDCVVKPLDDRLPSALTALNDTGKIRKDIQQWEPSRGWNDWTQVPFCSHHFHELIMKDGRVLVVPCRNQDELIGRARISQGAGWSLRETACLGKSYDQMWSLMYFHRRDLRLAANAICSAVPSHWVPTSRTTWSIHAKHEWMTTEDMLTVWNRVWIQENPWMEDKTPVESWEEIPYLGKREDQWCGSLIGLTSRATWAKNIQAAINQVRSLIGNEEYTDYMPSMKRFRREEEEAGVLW
Glyceraldehyde-3-phosphate dehydrogenase, sequence (P04406 whole entry): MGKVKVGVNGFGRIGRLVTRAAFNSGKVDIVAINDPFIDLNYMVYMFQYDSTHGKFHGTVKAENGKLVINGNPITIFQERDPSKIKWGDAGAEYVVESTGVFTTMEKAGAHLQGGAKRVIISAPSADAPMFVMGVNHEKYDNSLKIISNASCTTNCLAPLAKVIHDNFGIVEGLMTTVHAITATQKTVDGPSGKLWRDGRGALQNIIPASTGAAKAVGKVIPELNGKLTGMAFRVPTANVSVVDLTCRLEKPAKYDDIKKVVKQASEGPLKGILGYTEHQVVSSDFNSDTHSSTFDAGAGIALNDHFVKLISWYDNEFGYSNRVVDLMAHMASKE

Q: With `COc1ccccc1N1C(=O)NC(=O)/C(=C\c2cnn(-c3ccccc3)c2)C1=O` as the compound, how does the IC50 [1] read?
A: > 100 µM (active)

Q: For `c1ccc(P(c2ccccn2)c2ccccn2)cc1`, which IC50 [2] is on record?
A: > 66 µM (inactive)

Q: What about the IC50 [3] of the same compound?
A: > 66 µM (inactive)

Q: Which IC50 [4] does the source give for `COc1cccc(N2CCN(C3=C(Cl)C(=O)N(c4ccc(C)cc4)C3=O)CC2)c1` here?
A: > 50 µM (inconclusive)

Q: What does the source list for `COc1cccc(NC(=O)CN(C)C(=O)CSC(=S)N2CCCC2)c1`?
A: IC50 [2]: > 66 µM (inactive); IC50 [3]: > 66 µM (inactive)

Q: Which EC50 [5] does the source give for `Cc1ccn2cc(CCNC(=O)C3CC=CCC3C(=O)O)nc2c1` (stereo unspecified) here?
A: 3.76 µM (active)

Q: What does the source list for `COC(=O)CSC1=NS(=O)(=O)c2ccccc21`?
A: EC50 [6]: > 53 µM (inactive); IC50 [1]: 23.2 µM (active); IC50 [7]: > 47.1 µM (inactive)

Q: Which AC50 [8] does the source give for `O=C(CSc1nc2c(c(=O)n1-c1ccc(Br)cc1)SCC2)NCc1ccco1` here?
A: 43 µM (active)

Q: Which results are given for `O=C(/C=C/c1ccco1)Oc1cc(Br)cc(/C=N/NC(=O)c2ccccc2O)c1`?
A: EC50 [9]: 7.54 µM (active); EC50 [10]: 8.58 µM (active); EC50 [11]: 5.62 µM (active); EC50 [12]: 5.69 µM (active); AC50 [13]: 5.21 µM (active); EC50 [14]: 15.2 µM (active); EC50 [15]: 1.49 µM (active); EC50 [16]: > 160 µM (inactive); EC50 [17]: 2.62 µM (active)

Q: With `OCCN1CCN(Cc2cc(Br)cc(Br)c2O)CC1` as the compound, how does the EC50 [5] read?
A: 0.0293 µM (active)
